Source: patent US20110166079A1, “METHODS OF TREATING CANCER WITH APOE PEPTIDES” (COGNOSCI, INC., priority 2008, published 2011)

What was measured:
Akt kinase = assay: LPS-induced phosphorylation of Akt kinase in BV2 microglial cells (Western blot densitometry); type: cell-based, mouse; conditions: 10 ng/mL LPS, 1 μM COG112, normalized to actin, FIG. 2C
Experimental: To determine if COG peptides could also suppress activation of the upstream Akt kinase, BV2 microglial cells were treated with 10 ng/mL LPS alone or in the presence of 1 μM COG112 (SEQ ID NO: 2) peptide. Cell lysates were run on 10% polyacrylamide gels and subsequently transferred to nitrocellulose membranes. Blots were probed with an anti-phospho-Akt antibody or an antibody to actin. Densitometry analysis of the western blots was conducted and the signals from phosphorylated Akt kinase were normalized to those from actin.

IκB Kinase (IκK) = assay: IκK activity ELISA in YAMC cells exposed to C. rodentium; type: cell-based, mouse; conditions: FIG. 2D
Experimental: Akt kinase can phosphorylate and activate IκB Kinase (IκK), which leads to the de-repression of NFκB by IκB. As described above, COG peptides reduce phosphorylation of IκB and subsequent activation of NFκB induced by a Toll-like receptor 4 agonist (LPS). To determine if COG peptides also affect IκK activation, IκK activity was assessed in cytoplasmic cellular lysates of young adult mouse colon (YAMC) cells exposed to C. rodentium bacteria alone or in the presence of COG112 (SEQ ID NO: 2). IκK activity was measured using a specific ELISA assay (K-LISATM detection kit, Calbiochem/EMD Biosciences). Cytosolic cell extracts were incubated in glutathionine coated wells of a 96-well plate with a glutathione S transferase (GST)-tagged IκB-α fusion polypeptide substrate that includes the Ser32 and Ser36 IκB-α kinase phosphorylation sites. Phosphorylated GST-IκB-α substrate was detected using horseradish peroxidase-conjugated anti-phospho-IκB-α antibody. Optical density proportional to kinase activity was measured at 450 nm in a plate reader. The time course of IκK activation induced by C. rodentium in the presence (closed squares) or absence (open squares) of COG112 is shown in FIG. 2D. Time 0 indicates cells that were not stimulated with C. rodentium.

B-CLL cells [1] = assay: Cytotoxicity on B-CLL cells from CLL patients (MTS assay)
Experimental: To determine whether COG peptides could counteract the overactivation of the Akt/NFkB pathway in B-CLL cells and effectively induce apoptosis, cytotoxicity testing was performed on freshly isolated B-CLL cells from CLL patients with COG peptides. Blood from CLL patients was collected and CD5+/CD19+ CLL cells were isolated using the RosetteSep™ Human B Cell Enrichment Cocktail. This method depletes whole blood of T cells, monocytes, and NK cells using a proprietary antibody cocktail containing anti-CD14, anti-CD2 and anti-CD16 antibodies to remove T cells, monocytes, and NK cells, respectively. The antibody cocktail crosslinks unwanted cells in human whole blood to multiple red blood cells forming immunorosettes thereby increasing the density of the rosetted cells, such that they pellet along with the free RBCs when centrifuged over a buoyant density medium such as Ficoll-Paque®. The highly enriched B-cell or B-CLL cells are left at the interface between Ficoll and the plasma.
COG peptides were applied to the isolated B-CLL cells (0.25×10^6 cells/well in a 96 well plate) for 72 hours, after which viable cells were assessed using the MTS assay ([…]).
Additional B-CLL cells and peripheral blood mononuclear cells (PBMC; i.e., normal B cells) were isolated from leukemia patients and normal volunteers, respectively, and were treated with a range of COG112 concentrations.

[2] = Cytotoxicity on PBMC from normal volunteers; type: cell-based; conditions: human, FIG. 4
B-CLL cells [3] = assay: Annexin V / propidium iodide apoptosis assay on B-CLL cells; type: cell-based, human
Experimental: In a first series of experiments, apoptosis assays using Annexin V staining were performed on freshly isolated B-CLL cells to determine if COG112 could reverse the anti-apoptotic state in these cells and induce apoptosis. […] Apoptosis was measured using the Annexin V-FITC apoptosis detection kit (BD Biosciences-Pharmingen). COG-treated and untreated cells were Annexin V-FITC- and propidium iodide-stained for 15 minutes in 1× binding buffer (10 mM HEPES, pH 7.4, 140 mM NaCl, 2.5 mM CaCl2) and analyzed by flow cytometry. One aliquot of cells was treated with 100 μg/mL etoposide as a positive control for apoptosis induction.

[4] = system: BCR/Abl+ K562 CML cell line; assay: Growth of BCR/Abl+ K562 CML cells (trypan blue counting); type: cell-based
Experimental: Cells (20 mL) were seeded in a T-75 flask at a concentration of 0.25×10^6 cells/mL. Each day after seeding, 0.20 mL of cell suspension was removed and centrifuged to collect cells. The cell pellet was resuspended in 500 μL of serum free media and 100 μL of trypan blue stain was added and incubated for 5 minutes before counting the […] cells with a hemacytometer.

BCR/ABL fusion protein = assay: Phospho-BCR/ABL Western blot in K562 cells; type: cell-based; conditions: COG112 0.5 or 1 μM, 24 hours, FIG. 8A
Experimental: As discussed above, constitutive activation of the BCR/ABL fusion protein produced by the Philadelphia chromosome (e.g. product of the t(9;22)(q34;q11) translocation) is the primary causative factor in the persistent signaling that leads to unrestrained cell proliferation and survival in CML. […] Cell lysates were prepared and subject to Western blot analysis to detect activated phospho-BCR/ABL.

Jurkat T-cells = assay: Growth of Jurkat T-cell leukemia cells; type: cell-based, human; conditions: 1 μM COG112, FIG. 9
Experimental: To determine whether ApoE peptides could be therapeutic for T-cell leukemia, the effect of COG112 on the growth rate of Jurkat T-cells, a human acute T-cell leukemia cell line, was assessed. Jurkat T-cells (2×10^4 cells per well in a 6 well plate) were grown in 2 mL of media in the absence or presence of 1 μM COG112 added upon plating the cells. Cell growth was measured using a hemacytometer following daily removal of a small aliquot for counting.

## Ac-RQIKIWFQNRRMKWKKCLRVRLASHLRKLRKRLL-NH2 (N-terminus and C-terminus assumed) [COG112]
Akt kinase
  LPS-induced phosphorylation of the Akt kinase: significantly decreased
IκB Kinase (IκK)
  IκK activity: substantially reduced
B-CLL cells [1]; EC50 relative to COG056 control
  Fold Change: 58.6
B-CLL cells [1]; human, 72 hours
  EC50: 220 ± 130 nM
[2]
  EC50: ~20 µM
B-CLL cells [3]; B-CLL cells, Annexin V
  ED50 for induction of apoptosis: closely mirrored the ED50 for cytotoxicity
B-CLL cells [3]; increasing concentrations of COG112, flow cytometry, FIG. 5
  apoptosis (Annexin-V+/propidium iodide+ cells): dose-dependent increase in apoptosis
[4]; 1 μM COG112, 75 nM Imatinib, alone or combined, FIG. 7B
  K562 cell growth at reduced concentrations: suboptimal inhibition
[4]; dose response of COG112, Imatinib 1 μM positive control, FIG. 7A
  K562 cell growth: dose dependent inhibition
BCR/ABL fusion protein
  level of phosphorylated BCR/ABL: dose-dependent reduction
Jurkat T-cells
  proliferation of Jurkat T-cells: significantly inhibited
